This passage reports TGI results from PubChem BioAssay (NCI).

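Protocol summary: plate cells (96-well), add compound at 5 concentrations, incubate 48 h, interpolate endpoints linearly. TGI denotes the concentration required for complete inhibition of growth.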

Among the test systems are MDA-MB-435; MALME-3M melanoma; SN12C renal; TK-10 renal; NCI/ADR-RES ovarian; IGROV1 ovarian; HS 578T breast; SW-620 colon; NCI-H23 lung; SR leukemia; A549 NSCLC; MDA-MB-231 breast; OVCAR-4 ovarian; OVCAR-3 ovarian; NCI-H522 lung; HCT-15 colon; UACC-257 melanoma; 786-0 renal; K-562 leukemia.
What all share (experiment): growth of human tumour cells (NCI), 48 h

Turning to `C=CCN1C(=O)/C(=C/c2ccco2)N=C1SC/C=C/C`, the TGI in the assay with MDA-MB-435, in the assay with MALME-3M melanoma, with SN12C renal, in the assay with TK-10 renal, in the assay on NCI/ADR-RES ovarian and in the assay on IGROV1 ovarian was greater than 100 µM in each case. Also, the TGI in the assay on HS 578T breast is greater than 100 µM; with SW-620 colon, greater than 100 µM; with NCI-H23 lung, greater than 100 µM; in the assay on SR leukemia it was 52.9 µM; with A549 NSCLC, greater than 100 µM; in the assay with MDA-MB-231 breast, greater than 100 µM. Also, the TGI with OVCAR-4 ovarian, with OVCAR-3 ovarian, in the assay with NCI-H522 lung, with HCT-15 colon, with UACC-257 melanoma and with 786-0 renal was greater than 100 µM throughout. Also, the TGI with K-562 leukemia is greater than 100 µM.

Turning to `OC1(c2cccs2)c2cccc(Cl)c2C(O)(c2cccs2)c2c(Cl)cccc21` (stereo not drawn), the TGI in the assay on MDA-MB-435, with MALME-3M melanoma, in the assay with SN12C renal, in the assay with TK-10 renal, with NCI/ADR-RES ovarian and with IGROV1 ovarian was greater than 100 µM each time. Further, the TGI in the assay on HS 578T breast is 33.4 µM; in the assay with SW-620 colon, greater than 100 µM; in the assay on NCI-H23 lung, greater than 100 µM; in the assay on SR leukemia, greater than 100 µM; in the assay on A549 NSCLC, greater than 100 µM; in the assay with MDA-MB-231 breast it was greater than 100 µM. Besides, the TGI in the assay on OVCAR-4 ovarian, in the assay with OVCAR-3 ovarian, with NCI-H522 lung, with HCT-15 colon, in the assay on UACC-257 melanoma and in the assay with 786-0 renal was greater than 100 µM in each case. The same molecule had a TGI in the assay with K-562 leukemia greater than 100 µM.
